Measurements from patent publication US11638707B2, “Substituted amino triazoles useful as chitinase inhibitors” (Molecure S.A., priority 2019, dated 2023).

What was measured:
recombinant human CHIT1 = recombinant human CHIT1 (Homo sapiens (Human), UniProt Q13231); experiment: Human CHIT1 activity assay; assay type: biochemical; details: recombinant human CHIT1, citrate buffer pH 5.2, 37° C., 60 minutes; read-out: hCHIT1, IC50
Experimental: (§1) The assay was run in the 96-well plate format, each reaction in the total volume of 100 μL. 4-methylumbelliferyl β-D-N,N′,N″-triacetylchitotriose was used as a substrate for the enzyme. Upon hydrolysis by CHIT1, the substrate releases 4-methylumbelliferyl (4MU) that, when ionized in basic pH, emits fluorescence at 460 nm. Briefly, 40 μL of a substrate was added to each well, followed by 10 μL of compound dilution and 50 μL of CHIT1 recombinant enzyme solution. The reaction was carried out in citrate buffer, pH 5.2, in the dark, at 37° C. for 60 minutes with shaking. […] The IC50 values were calculated using GraphPad Prism.

recombinant human AMCase = recombinant human AMCase (Homo sapiens (Human), UniProt Q9BZP6); experiment: Human AMCase activity assay; assay type: biochemical; details: citrate buffer pH 5.2, 37° C., 60 minutes, read-out: hAMCase, IC50
Experimental: as §1, with “4-Methylumbelliferyl B-D-N,N′-diacetylchitobioside hydrate” for “4-methylumbelliferyl β-D-N,N′,N″-triacetylchitotriose”, “AMCase,” for “CHIT1,”, “hAMCase” for “CHIT1”

hERG channel = hERG channel (Homo sapiens (Human), UniProt Q12809); experiment: Human ERG channel binding assay (fluorescence polarization); details: Table 1; tracer displacement, 4 h at room temperature
Experimental: Human ERG Channel Binding Assay
Fluorescence polarization assay based on the principle of fluorescence polarization where a red-shifted fluorescent tracer is displaced from the hERG channel by compounds that bind to the channel was used to establish the binding of the compounds to hERG channel. […] Briefly, the compounds in serial dilutions were incubated with a membrane fraction containing hERG channel protein and a high-affinity red fluorescent hERG channel ligand in black 384-well plate. […] The IC50 values were calculated using GraphPad Prism.

recombinant human CHIT1, sequence (Q13231 22-466): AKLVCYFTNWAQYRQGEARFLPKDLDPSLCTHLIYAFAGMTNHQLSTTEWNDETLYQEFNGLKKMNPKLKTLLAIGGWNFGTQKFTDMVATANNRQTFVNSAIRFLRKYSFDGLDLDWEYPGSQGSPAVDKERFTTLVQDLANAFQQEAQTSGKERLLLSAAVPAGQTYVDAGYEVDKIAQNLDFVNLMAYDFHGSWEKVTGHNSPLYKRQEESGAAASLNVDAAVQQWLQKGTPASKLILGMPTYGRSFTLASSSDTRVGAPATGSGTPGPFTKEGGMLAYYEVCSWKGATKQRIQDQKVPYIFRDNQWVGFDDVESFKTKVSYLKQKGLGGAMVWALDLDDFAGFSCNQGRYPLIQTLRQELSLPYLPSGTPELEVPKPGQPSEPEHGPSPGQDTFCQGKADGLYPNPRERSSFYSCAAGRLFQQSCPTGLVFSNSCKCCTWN
recombinant human AMCase, sequence (Q9BZP6 22-476): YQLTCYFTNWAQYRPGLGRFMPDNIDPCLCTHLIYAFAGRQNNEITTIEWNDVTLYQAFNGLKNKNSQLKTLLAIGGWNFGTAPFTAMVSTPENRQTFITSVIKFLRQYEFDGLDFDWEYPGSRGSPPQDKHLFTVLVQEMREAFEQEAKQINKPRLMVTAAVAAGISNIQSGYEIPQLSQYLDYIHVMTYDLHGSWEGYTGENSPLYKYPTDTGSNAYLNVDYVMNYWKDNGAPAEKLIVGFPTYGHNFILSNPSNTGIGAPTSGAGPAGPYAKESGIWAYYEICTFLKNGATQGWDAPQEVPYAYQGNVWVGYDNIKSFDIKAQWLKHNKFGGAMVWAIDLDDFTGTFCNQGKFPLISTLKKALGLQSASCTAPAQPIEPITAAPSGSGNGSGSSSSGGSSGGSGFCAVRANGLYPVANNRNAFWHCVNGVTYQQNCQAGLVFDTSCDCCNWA
hERG channel, sequence (Q12809 whole entry): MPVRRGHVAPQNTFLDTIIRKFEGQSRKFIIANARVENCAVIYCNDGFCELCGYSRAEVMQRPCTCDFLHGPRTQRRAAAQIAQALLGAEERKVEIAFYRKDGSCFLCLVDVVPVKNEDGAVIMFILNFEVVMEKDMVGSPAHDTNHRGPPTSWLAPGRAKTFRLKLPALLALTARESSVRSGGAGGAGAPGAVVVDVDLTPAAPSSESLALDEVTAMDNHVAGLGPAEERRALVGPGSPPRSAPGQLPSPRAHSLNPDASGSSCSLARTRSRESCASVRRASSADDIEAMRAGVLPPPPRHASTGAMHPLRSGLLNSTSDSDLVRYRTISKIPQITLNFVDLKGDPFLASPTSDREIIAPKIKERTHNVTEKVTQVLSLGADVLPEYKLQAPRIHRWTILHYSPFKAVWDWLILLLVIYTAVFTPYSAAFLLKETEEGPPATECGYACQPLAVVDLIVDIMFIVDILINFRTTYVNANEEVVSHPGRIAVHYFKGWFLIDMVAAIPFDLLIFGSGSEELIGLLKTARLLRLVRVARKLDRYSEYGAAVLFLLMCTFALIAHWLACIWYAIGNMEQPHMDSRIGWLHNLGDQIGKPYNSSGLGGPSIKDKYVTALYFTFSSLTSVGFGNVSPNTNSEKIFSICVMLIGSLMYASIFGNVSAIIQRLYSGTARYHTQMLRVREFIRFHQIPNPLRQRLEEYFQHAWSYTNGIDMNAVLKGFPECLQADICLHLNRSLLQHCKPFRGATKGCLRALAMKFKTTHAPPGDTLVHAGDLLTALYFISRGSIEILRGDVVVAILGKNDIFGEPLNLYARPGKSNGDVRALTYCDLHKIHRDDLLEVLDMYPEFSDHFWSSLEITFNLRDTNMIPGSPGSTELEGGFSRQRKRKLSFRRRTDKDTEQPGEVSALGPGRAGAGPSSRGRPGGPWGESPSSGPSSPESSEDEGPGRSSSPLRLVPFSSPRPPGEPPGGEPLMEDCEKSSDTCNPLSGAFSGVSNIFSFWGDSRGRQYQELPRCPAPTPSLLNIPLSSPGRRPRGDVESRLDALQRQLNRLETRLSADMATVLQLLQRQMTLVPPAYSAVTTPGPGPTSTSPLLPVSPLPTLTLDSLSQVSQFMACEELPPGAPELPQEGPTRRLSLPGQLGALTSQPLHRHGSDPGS

| SMILES | IC50 (recombinant human CHIT1) | IC50 (recombinant human AMCase) | IC50 (hERG channel) |
| --- | --- | --- | --- |
| Nc1nnc(N2CCC(N3C[C@H](CF)OC[C@@H]3Cc3ccc(Cl)cc3)CC2)[nH]1 [Example 3, 5-(4-((2R,5S)-5-(4-chlorobenzyl)-2-(fluoromethyl)morpholino)piperidin-1-yl)-4H-1,2,4-triazol-3-amine 2,2,2-trifluoroacetate] | < 100 nM | < 100 nM | > 100000 nM |
| Nc1nnc(N2CCC(N3C[C@H](Cc4nn[nH]n4)OC[C@@H]3Cc3ccc(Cl)cc3)CC2)[nH]1 [Example 4, 5-(4-((2S,5S)-2-((2H-tetrazol-5-yl)methyl)-5-(4-chlorobenzyl)morpholino)-piperidin-1-yl)-4H-1,2,4-triazol-3-amine 2,2,2-trifluoroacetate] | < 100 nM | < 100 nM | > 100000 nM |
| Cn1nnc(C[C@H]2CN(C3CCN(c4nnc(N)[nH]4)CC3)[C@@H](Cc3ccc(Cl)cc3)CO2)n1 [Example 5, 5-(4-((2S,5S)-5-(4-chlorobenzyl)-2-((2-methyl-2H-tetrazol-5-yl)methyl)-morpholino)piperidin-1-yl)-4H-1,2,4-triazol-3-amine 2,2,2-trifluoroacetate] | < 100 nM | < 100 nM | 25000 to 100000 nM |
| N#CC[C@H]1CN(C2CCN(c3nnc(N)[nH]3)CC2)[C@@H](Cc2ccc(Cl)cc2)CO1 [Example 6, 2-((2S,5S)-4-(1-(5-amino-4H-1,2,4-triazol-3-yl)piperidin-4-yl)-5-(4-chlorobenzyl)-morpholin-2-yl)acetonitrile 2,2,2-trifluoroacetate] | < 100 nM | < 100 nM | > 100000 nM |
| Nc1nnc(N2CCC(N3C[C@H](CN4CCCC4=O)OC[C@@H]3Cc3ccc(Cl)cc3)CC2)[nH]1 [Example 7, 1-(((2R,5S)-4-(1-(5-amino-4H-1,2,4-triazol-3-yl)piperidin-4-yl)-5-(4-chlorobenzyl)-morpholin-2-yl)methyl)pyrrolidin-2-one 2,2,2-trifluoroacetate] | < 100 nM | < 100 nM | > 100000 nM |
| N#Cc1cnn(C[C@H]2CN(C3CCN(c4nnc(N)[nH]4)CC3)[C@@H](Cc3ccc(Cl)cc3)CO2)c1 [Example 8, 1-(((2R,5S)-4-(1-(5-amino-4H-1,2,4-triazol-3-yl)piperidin-4-yl)-5-(4-chlorobenzyl)-morpholin-2-yl)methyl)-1H-pyrazole-4-carbonitrile 2,2,2-trifluoroacetate] | < 100 nM | < 100 nM | 25000 to 100000 nM |
| Cn1ccc([C@H]2CN(C3CCN(c4nnc(N)[nH]4)CC3)[C@@H](Cc3ccc(Cl)cc3)CO2)n1 [Example 9, 5-(4-((2R,5S)-5-(4-chlorobenzyl)-2-(1-methyl-1H-pyrazol-3-yl)morpholino)-piperidin-1-yl)-4H-1,2,4-triazol-3-amine 2,2,2-trifluoroacetate] | < 100 nM | < 100 nM | > 100000 nM |
| Cn1nccc1[C@H]1CN(C2CCN(c3nnc(N)[nH]3)CC2)[C@@H](Cc2ccc(Cl)cc2)CO1 [Example 10, 5-(4-((2R,5S)-5-(4-chlorobenzyl)-2-(1-methyl-1H-pyrazol-5-yl)morpholino)piperidin-1-yl)-4H-1,2,4-triazol-3-amine 2,2,2-trifluoroacetate] | < 100 nM | < 100 nM | > 100000 nM |
| Cc1cc([C@H]2CN(C3CCN(c4nnc(N)[nH]4)CC3)[C@@H](Cc3ccc(Cl)cc3)CO2)nn1C [Example 11, 5-(4-((2R,5S)-5-(4-chlorobenzyl)-2-(1,5-dimethyl-1H-pyrazol-3-yl)morpholino)-piperidin-1-yl)-4H-1,2,4-triazol-3-amine 2,2,2-trifluoroacetate] | < 100 nM | < 100 nM | > 100000 nM |
| Nc1nnc(N2CCC(N3C[C@H](c4ccn[nH]4)OC[C@@H]3Cc3ccc(Cl)cc3)CC2)[nH]1 [Example 12, 5-(4-((2R,5S)-5-(4-chlorobenzyl)-2-(1H-pyrazol-5-yl)morpholino)piperidin-1-yl)-4H-1,2,4-triazol-3-amine 2,2,2-trifluoroacetate] | < 100 nM | < 100 nM | > 100000 nM |
